Patent US20090227547A1, “Novel salt form of a Beta2-adrenergic agonist quinolin-2-one derivative” (Glaxo Group Limited, priority 2005, published 2009)

Tests used:
Type in all cases: physicochemical
[1] = physical and chemical stability on storage; conditions: general statement
[2] = solubility in solvents (crystallisation antisolvents); conditions: in a wide range of solvents usable as antisolvents (water, tetrahydrofuran, lower alcohols, acetone)
[3] = hygroscopicity

solubility [2]: limited solubility | hygroscopicity [3]: substantially non-hygroscopic
Substance: N-[2-[4-[(3-phenyl-4-methoxyphenyl)amino]phenyl]ethyl]-(R)-2-hydroxy-2-(8-hydroxy-1,2-dihydro-2-oxoquinolin-5-yl)ethylammonium 2,5-dichlorobenzenesulfonate
physical and chemical stability on storage [1]: good physical and chemical stability on storage
